According to ChEMBL document CHEMBL1154382, “Preliminary SAR analysis of novel antiproliferative N(6),5'-bis-ureidoadenosine derivatives” (2009):
Activity calls are given as the source filed them.

What was measured:
Assay type in all cases: functional
HL-60(TB) = assay: Antiproliferative activity against human HL-60(TB) cells at 10 uM assessed as cell growth inhibition relative to control
EKVX = assay: Antiproliferative activity against human EKVX cells at 10 uM assessed as cell growth inhibition relative to control
NCI-H23 = assay: Antiproliferative activity against human NCI-H23 cells at 10 uM assessed as cell growth inhibition relative to control
MDA-MB-468 = assay: Antiproliferative activity against human MDA-MB-468 cells at 10 uM assessed as cell growth inhibition relative to control
PC-3 = assay: Antiproliferative activity against human PC3 cells at 10 uM assessed as cell growth inhibition relative to control
RPMI8266 = assay: Antiproliferative activity against human […] cells at 10 uM assessed as cell growth inhibition relative to control
786-0 = assay: Antiproliferative activity against human 786-0 cells at 10 uM assessed as cell growth inhibition relative to control
OVCAR-8 = assay: Antiproliferative activity against human OVCAR8 cells at 10 uM assessed as cell growth inhibition relative to control
HCT-116 = assay: Antiproliferative activity against human HCT116 cells at 10 uM assessed as cell growth inhibition relative to control
MCF7 = assay: Antiproliferative activity against human MCF7 cells at 10 uM assessed as cell growth inhibition relative to control
OVCAR-3 = assay: Antiproliferative activity against human OVCAR-3 cells at 10 uM assessed as cell growth inhibition relative to control
MDA-MB-231 = assay: Antiproliferative activity against human MDA-MB-231 cells at 10 uM assessed as cell growth inhibition relative to control
SF-268 = assay: Antiproliferative activity against human SF268 cells at 10 uM assessed as cell growth inhibition relative to control
UACC-62 = assay: Antiproliferative activity against human UACC62 cells at 10 uM assessed as cell growth inhibition relative to control
SN12C = assay: Antiproliferative activity against human SN12C cells at 10 uM assessed as cell growth inhibition relative to control
NCI-H522 = assay: Antiproliferative activity against human NCI-H522 cells at 10 uM assessed as cell growth inhibition relative to control
LOX IMVI = assay: Antiproliferative activity against human LOXIMVI cells at 10 uM assessed as cell growth inhibition relative to control
RXF 393 = assay: Antiproliferative activity against human RXF393 cells at 10 uM assessed as cell growth inhibition relative to control
SK-MEL-2 = assay: Antiproliferative activity against human SK-MEL-2 cells at 10 uM assessed as cell growth inhibition relative to control
KM12 = assay: Antiproliferative activity against human KM12 cells at 10 uM assessed as cell growth inhibition relative to control
SK-OV-3 = assay: Antiproliferative activity against human SKOV3 cells at 10 uM assessed as cell growth inhibition relative to control
HCC 2998 = assay: Antiproliferative activity against human HCC2998 cells at 10 uM assessed as cell growth inhibition relative to control
A498 = assay: Antiproliferative activity against human A498 cells at 10 uM assessed as cell growth inhibition relative to control
MOLT-4 = assay: Antiproliferative activity against human MOLT4 cells at 10 uM assessed as cell growth inhibition relative to control
UACC-257 = assay: Antiproliferative activity against human UACC257 cells at 10 uM assessed as cell growth inhibition relative to control
OVCAR-5 = assay: Antiproliferative activity against human OVCAR5 cells at 10 uM assessed as cell growth inhibition relative to control
ACHN = assay: Antiproliferative activity against human ACHN cells at 10 uM assessed as cell growth inhibition relative to control
SF-539 = assay: Antiproliferative activity against human SF539 cells at 10 uM assessed as cell growth inhibition relative to control
BT-549 = assay: Antiproliferative activity against human BT549 cells at 10 uM assessed as cell growth inhibition relative to control
CCRF-CEM = assay: Antiproliferative activity against human CCRF-CEM cells at 10 uM assessed as cell growth inhibition relative to control
NCI-H226 = assay: Antiproliferative activity against human NCI-H226 cells at 10 uM assessed as cell growth inhibition relative to control
K562 = assay: Antiproliferative activity against human K562 cells at 10 uM assessed as cell growth inhibition relative to control
SW-620 = assay: Antiproliferative activity against human SW620 cells at 10 uM assessed as cell growth inhibition relative to control
TK-10 = assay: Antiproliferative activity against human TK10 cells at 10 uM assessed as cell growth inhibition relative to control
U-251 = assay: Antiproliferative activity against human U251 cells at 10 uM assessed as cell growth inhibition relative to control
HCT-15 = assay: Antiproliferative activity against human HCT15 cells at 10 uM assessed as cell growth inhibition relative to control
Malme-3M = assay: Antiproliferative activity against human MALME-3M cells at 10 uM assessed as cell growth inhibition relative to control
SNB-75 = assay: Antiproliferative activity against human SNB75 cells at 10 uM assessed as cell growth inhibition relative to control
SNB-19 = assay: Antiproliferative activity against human SNB19 cells at 10 uM assessed as cell growth inhibition relative to control
COLO 205 = assay: Antiproliferative activity against human COLO205 cells at 10 uM assessed as cell growth inhibition relative to control
CAKI-1 = assay: Antiproliferative activity against human Caki1 cells at 10 uM assessed as cell growth inhibition relative to control
NCI-H322M = assay: Antiproliferative activity against human NCI-H322M cells at 10 uM assessed as cell growth inhibition relative to control
HOP-62 = assay: Antiproliferative activity against human HOP62 cells at 10 uM assessed as cell growth inhibition relative to control
UO-31 = assay: Antiproliferative activity against human UO31 cells at 10 uM assessed as cell growth inhibition relative to control
A549 = assay: Antiproliferative activity against human A549 cells at 10 uM assessed as cell growth inhibition relative to control
OVCAR-4 = assay: Antiproliferative activity against human OVCAR4 cells at 10 uM assessed as cell growth inhibition relative to control
IGROV-1 = assay: Antiproliferative activity against human IGROV1 cells at 10 uM assessed as cell growth inhibition relative to control
NCI-H460 = assay: Antiproliferative activity against human NCI-H460 cells at 10 uM assessed as cell growth inhibition relative to control
SF-295 = assay: Antiproliferative activity against human SF295 cells at 10 uM assessed as cell growth inhibition relative to control
Hs-578T = assay: Antiproliferative activity against human Hs 578T cells at 10 uM assessed as cell growth inhibition relative to control
M14 = assay: Antiproliferative activity against human M14 cells at 10 uM assessed as cell growth inhibition relative to control
HT-29 = assay: Antiproliferative activity against human HT-29 cells at 10 uM assessed as cell growth inhibition relative to control
T47D = assay: Antiproliferative activity against human T47D cells at 10 uM assessed as cell growth inhibition relative to control
SK-MEL-28 = assay: Antiproliferative activity against human SK-MEL-28 cells at 10 uM assessed as cell growth inhibition relative to control
HOP-92 = assay: Antiproliferative activity against human HOP92 cells at 10 uM assessed as cell growth inhibition relative to control
DU-145 = assay: Antiproliferative activity against human DU145 cells at 10 uM assessed as cell growth inhibition relative to control
SK-MEL-5 = assay: Antiproliferative activity against human SK-MEL-5 cells at 10 uM assessed as cell growth inhibition relative to control

Measured: growth inhibition (GI)

CNC(=O)NC[C@H]1O[C@@H](n2cnc3c(NC(=O)Nc4ccccc4)ncnc32)[C@@H]2OC(C)(C)O[C@@H]21
inactive: all assays above
